According to patent US8597904B2, “Pharmaceutical compositions for the treatment of conditions responsive to proteasome inhibition” (priority 2007, dated 2013):
Where two headings read alike, the source gives them in different places.

Experiments:
SK-N-SH cells = experiment: CellTiter 96 Aqueous One (MTS) cell proliferation assay; assay type: cell-based, human
Protocol: (§1) The CellTiter 96 Aqueous One solution Cell Proliferation Assay (2-(4,5-dimethylthiazol-2-yl)-5-(3-carboxymethoxyphenyl)-2-(4-sulfophenyl)-2H-tetrazolium, inner salt; MTS) (Promega, San Luis Obispo, Calif.) was used to determine the viability of cells treated with GlbA and SylA. Briefly, SK-N-SH and SKOV3 cells were seeded in clear, 96 well plates, as described (Example 11), and cultured for 18-24 hours. Ten μl GlbA or SylA were added at different concentrations (0-100 μM) and incubated for 48 hours. After the experiment, 20 uL of tetrazolium CellTiter 96 Aqueous One Solution Reagent was added to wells, incubated for 75-150 min. at 37° C. The absorbance was measured at 490 nm using a Perkin Elmer HTS7000 Plus bioassay reader.

SKOV3 cells [1] = experiment: as above; assay type: cell-based, human
Protocol: as §1

[2] = system: NB and ovarian cancer cells; details: Coleman et al. 2006, cited from earlier work
[3] = system: cells colonized by powdery mildew in wheat; details: literature (Amrein 2004; Waspi 1998-2001); cited from earlier work
SKOV3 cells [4] = details: values from previous studies with SylA (Coleman et al. 2006); cited from earlier work
Rat-1 fibroblasts cells = experiment: sulphorhodamine B (SRB) cell viability / proliferation assay; assay type: cell-based
Protocol: To then test the effects of syringolin A on proliferation, cells at 0.25-0.5×10^5 cells per ml were seeded in 96-well microtiter plates containing 100 μl of culture medium per well. After 24 hours, syringolin A was added to wells to a final concentration of 0.5 μm to 100 μm. Syringolin was not added to parallel samples of control cells. Cells were incubated for 48 hours, photographed, and the viability of cells (calculated as a percentage of control cell counts) was determined using the sulphorhodamine B (SRB) assay as previously reported (Skehan, et al. 1990. J. Natl. Cancer Inst. 82:1107-1112, which is incorporated herein by reference in its entirety). In brief, cell culture medium was removed from the microtiter plate and adherent cells were fixed with 10% (w/v) trichloracetic acid (TCA) for 30 minutes at room temperature. Following four washes with tap water, 100 μl of SRB (Sigma Chemical Co., St. Louis, Mo.) (0.4 g/100 ml 1% [v/v] glacial acetic acid in water) was added and the plate was then incubated for 30 minutes at room temperature, and rinsed four times with 3% (v/v) glacial acetic acid. […] The absorption at a wavelength of 560 nm was read using an HTS 7000 Plus Bioassay Reader or a Victor 3, 1420 Multilabel Counter (PerkinElmer, Inc. Boston, Mass.). […]

SKOV3 cells [5] = experiment: as above; assay type: cell-based, human
Text: The mammalian cell lines used to test the effects of syringolin A were human neuroblastoma (NB) cells with either wild type p53 (line SK-N-SH, provided by the American Type Culture Collection [ATCC], Manassas, Va.; Davidoff, et al. 1992. Oncogene 7:127-133; McKenzie, et al. 1999. Clin. Cancer Res. 5:4199-4207; Tweddle, et al. 2001. Am. J. Pathol. 158:2067-2077), mutant p53 (line LAN-1, cysteine to stop codon at residue 182, provided by Dr. Robert Seeger, University of California, Los Angeles, Calif.; Davidoff, et al. 1992. Oncogene 7:127-133; Tweddle, et al. 2001. Cancer Res. 61:8-13; Tweddle, et al. 2003. […] Cells were seeded 18-24 hours before GlbA or SylA treatment and analyzed after 24 and/or 48 hours. Cell numbers were determined using a haemacytometer in the presence of trypan blue (Fisher Scientific, Pittsburgh, Pa.).
To then test the effects of syringolin A on proliferation, cells at 0.25-0.5×10^5 cells per ml were seeded in 96-well microtiter plates containing 100 μl of culture medium per well. […] Cells were incubated for 48 hours, photographed, and the viability of cells (calculated as a percentage of control cell counts) was determined using the sulphorhodamine B (SRB) assay as previously reported (Skehan, et al. 1990. J. Natl. Cancer Inst. 82:1107-1112, which is incorporated herein by reference in its entirety). […]

CCCCCCC/C=C/C=C/C(=O)N[C@H](C(=O)N[C@H]1C[C@@H](O)CCNC(=O)/C=C/[C@H](C)NC1=O)[C@@H](C)O [glidobactin A]
cell morphology (SK-N-SH cells; 48 hours): severe morphological changes
EC50 (SK-N-SH cells; Homo sapiens, 48 hours, MTS): ~0.14 µM
effectiveness of GlbA relative to SylA (SK-N-SH cells; ratio of EC50): about 143 fold
EC50 (SKOV3 cells [1]; Homo sapiens, SK-OV-3, 48 hours, MTS): ~0.8 µM
cell morphology (SKOV3 cells [1]; SKOV3, 48 hours): severe morphological changes
effectiveness of GlbA relative to SylA (SKOV3 cells [1]; SKOV3, ratio of EC50): ~25 fold

CC(C)[C@H](NC(=O)N[C@H](C(=O)N[C@H]1/C=C/CCNC(=O)/C=C/[C@H](C(C)C)NC1=O)C(C)C)C(=O)O [syringolin A]
IC50 ([2]; read-out: IC-50 (concentration at which the cell proliferation rate is reduced to 50%)): ~25 µM
cell morphology ([2]; NB cells, 25 μM, 48 hours): severe morphological changes
hypersensitive cell death [3]: induce hypersensitive death of cells colonized by powdery mildew in wheat
EC50 (SKOV3 cells [4]): ~20 µM
cell morphology (Rat-1 fibroblasts cells; Rat-1, 25 μM, no detachment or floating cells): affected the cell morphology
cell proliferation rate (Rat-1 fibroblasts cells; Rat-1, dose-dependent): reduced the cell proliferation rate
cell morphology (SKOV3 cells [5]; SKOV3, 25 μM, no detachment or floating cells): affected the cell morphology
cell proliferation rate (SKOV3 cells [5]; SKOV3, dose-dependent): reduced the cell proliferation rate
